Structures are written as SMILES. ≈ marks a conversion by molar mass, not a printed value. Like-named read-outs stand apart in the source and are kept apart here.

Data on 3 compounds can be found in PMC6797808, “Fucosylated inhibitors of recently identified bangle lectin from Photorhabdus asymbiotica” (Scientific Reports, 2019).

For test [1], the target named is T1, PHL (Photorhabdus asymbiotica, UniProt C7BLE4). In words: Hemagglutination inhibition assay with PHL (papain-treated human RBCs O). The class given is cell-based. Conditions: for MIC (minimal inhibitory concentration, hemagglutination by PHL): RBC O, two independent measurements; for PotencyL-Fuc / β L-Fuc (affinity improvement factor) / β Azide1 (affinity improvement factor) / PotencyAzide1: hemagglutination; for PotencyL-Fuc: MIC L-fucose / MIC ligand; for β L-Fuc (affinity improvement factor): MICbasic unit/(valency × MICligand), basic unit L-Fuc; for β Azide1 (affinity improvement factor): basic unit azide 1; for PotencyAzide1: relative to azide 1. The protocol: The set of potential ligands 1–10 with different levels of fucosylation was tested, and their inhibition potency on hemagglutination by PHL was assessed (Table 1, Fig. 2). […] To assess the contribution of valency to the affinity increase, an affinity improvement factor β was calculated as the relationship MICbasic unit/(valency × MICligand).
Human red blood cells (RBCs) O were processed according to previously published work[16]. In brief, RBCs O treated with sodium citrate were washed four times by PBS buffer (137 mM NaCl, 2.7 mM KCl, 8 mM Na2HPO4, 1.47 mM KH2PO4, pH 7.4), diluted to 50% by PBS with 0.005% (w/w) sodium azide and treated by 0.1% papain for the duration of 30 minutes.
Hemagglutination inhibition assay was performed for specificity and semi-quantitative affinity of the PHL interaction with the compounds. All carbohydrate inhibitors in 50 mM starting concentration were serially diluted in the PBS buffer and used for a determination of the lowest inhibiting concentration. As a blank, the PBS buffer supplemented with the appropriate amount of DMSO was used in order to exclude potential interference with the interaction. The individual samples were mixed with the lectin in concentration 2 mg/ml in a 5 μl:5 μl ratio. Thereafter, 10 μl of 10% RBCs O in PBS buffer was added, thoroughly mixed and incubated for 10 minutes at room temperature. Following incubation, the mixture was again mixed and the reaction was observed on microscope slides using Levenhuk 2L NG microscope with Levenhuk D2L digital camera (Levenhuk, USA). Imagines were obtained via software ToupView for Windows (Levenhuk). The positive (PHL without inhibitor) and negative control (reaction without PHL) were prepared and processed in the same way using the appropriate volume of PBS buffer instead of the not included components. The lowest concentration of inhibitor able to inhibit agglutination was determined and compared with the standard (L-fucose). Minimal inhibitory concentrations (MIC) of synthesised inhibitors were determined from two independent measurements.

For test [2], the target named is T1, PHL. In words: SPR competitive inhibition of PHL binding to α-L-fucoside sensor chip. The settings on record: for IC50: 25 °C, three independent measurements; for β L-Fuc (affinity improvement factor): IC50,basic unit/(valency × IC50,ligand), basic unit L-Fuc; for PotencyL-Fuc: IC50 L-fucose / IC50 ligand; for PotencyAzide1: relative to azide 1. On the procedure: To analyse the competitive inhibition of PHL binding to a multivalent surface, the surface plasmon resonance (SPR) technique was employed. A sensor chip presenting α-L-fucopyranoside residues was treated with a constant concentration of PHL, while an increasing concentration of the ligands was used to determine IC50 (Table 2, Fig. 3). […] To assess the contribution of valency to the affinity increase, an affinity improvement factor β was calculated as the relationship IC50,basic unit/(valency × IC50,ligand)[30].
Surface plasmon resonance (SPR) experiments were performed on a BIAcore T200 instrument (GE Healthcare, UK) at 25 °C, using buffer A supplemented with 0.05% Tween 20 as a running buffer. α-L-fucoside was immobilized onto CM5 sensor chip (GE Healthcare, UK) covered with a carboxymethylated dextran matrix. The sensor chip surface was activated with N-ethyl-N-(3-dimethylaminopropyl)carbodiimide/N-hydroxysuccinimide solution and then coated with streptavidin using the manufacturer’s standard protocol using HBS buffer (10 mM HEPES, 150 mM NaCl, 0.05% Tween 20, pH 7. 5). Unreacted groups were blocked with 1 M ethanolamine-HCl, pH 8.5. Biotinylated carbohydrate (biotinilated monomeric probes, Lectinity, Russia) was injected onto particular measuring channel and pure biotin on blank channel at a flow rate of 5 μl/min.
SPR inhibition measurements were carried out on measuring channel with L-fucoside at a flow rate of 5 µl/min. PHL was diluted to a concentration of 20 μg/ml by the buffer A supplemented with 0.05% Tween 20, mixed 1:1 (v/v) with various concentrations of inhibitors (500–5 μM) in the same buffer and injected onto the sensor chip. The response of lectin bound to the sugar surface at equilibrium was plotted against the concentration of inhibitor in order to determine IC50 (concentration of inhibitor resulting in 50% inhibition of binding). As IC50 is not a constant and depends on the experimental set-up, a parameter called potency was used for characterization. The potency of a tested inhibitor is the ratio of IC50 of a chosen standard inhibitor (in this case L-fucose) and the inhibitor in question. Pure PHL lectin was used as a control (0% inhibition) and channel with pure biotin served as a blank. IC50 was determined from triplicates.

Test [3] has as its target T1, PHL. In words: Isothermal titration calorimetry of PHL with ligands. The class given is binding. An excerpt: The binding of PHL to different α-L-fucoside compounds was further characterized by isothermal titration calorimetry (ITC), enabling determination of the complete thermodynamic profile of the molecular interactions (Table 3, Fig. 4). […] Because of this, it was not possible to evaluate the data, despite the obvious interaction. The dendrimers also cross-linked/aggregated the protein as with calixarenes, however the curves provided clear outcomes with an affinity in the low micromolar range. The dissociation constants (KD) of all dendrimers correlate with their valency – the higher number of fucose, the more decreased KD. […] The stoichiometry value n corresponds to the number of terminal fucoses per ligand molecule. The n value decreases from 4 to 1 as the number of fucose units increases from 1 to 12 (Table 3).
PHL protein in buffer A was equilibrated at room temperature at least for 30 min before ITC measurement. All ITC experiments were performed using ITC200 calorimeter (Malvern Panalytical, UK) at 25 °C. Carbohydrate ligands dissolved in buffer A were used at different concentrations. Protein in the calorimeter cell (50 μM) was titrated by consecutive additions (2 μl) of the ligand (1.5–5 mM) in the syringe while stirring at 1000 rpm. Integrated heat effects were analysed by nonlinear regression using a single-site binding model and global fitting in Origin 7 software (Microcal Instruments)[37]. The thermodynamic parameters of synthesised inhibitors were determined from two independent measurements.
For orientation: Isothermal titration calorimetry measures the heat released or taken up as one component is titrated into another.

The target of test [4] is T1, PHL. More on the design: method as in PMID 28806750. Conditions: SPR competition assay, earlier work; cited from earlier work.
Test [5] has as its system P. asymbiotica subsp. australis cells. In words: Cell aggregation (cross-linking) assay. The settings on record: three independent measurements. The class given is cell-based, Photorhabdus asymbiotica subsp. australis. An excerpt: Because of the aggregation of PHL by calixarenes and dendrimers during SPR and ITC experiments, we decided to compare tetravalent compounds at a higher level. We performed a series of in vitro aggregation assays to reveal their aggregation properties towards P. asymbiotica subsp. australis (Table 4, Fig. 5). Prior to each assay, we confirmed the absence of aggregates in two negative controls – bacterial cells in PBS buffer and in the presence of azide 1 as a monomer. With all chosen compounds, we observed bacterial aggregates of a variable size that confirmed that they are capable of interacting with a cell surface. This effect may be caused by interaction of the multivalent inhibitors with PHL or other receptors. The concentration of the first appearance of aggregates varied according to the nature of the ligand used. […] An unexpected observation was that calixarene 7 had the lowest aggregation potential. In contrast to other techniques (hemagglutination, SPR and ITC), where calixarenes 6 and 7 provided similar results, during cross-linking experiments calixarene 7 was four times worse than calixarene 6. At the same time, both tetrameric calixarenes 6 and 7 are in a 1,3-alternate conformation with the two-faced presentation of the fucopyranosyl epitopes on opposite regions probably occupying a similar spatial orientation. The only difference is the tert-Bu group on the upper rim in calixarene 6, which might contribute to nonpolar interactions with whole P. asymbiotica cells.
P. asymbiotica subsp. australis was inoculated from stock cells stored at −80 °C into a standard LB media and were grown in 30 °C under an orbital shaking overnight. Bacterial growth was tracked by measuring the optical density of the broth at 600 nm (OD600) using a spectrophotometer (Biochrom Ltd., BioPhotometer WGA CO 8000 Biowave). Cells were harvested when reaching an OD600 = 0.5. The culture was centrifuged at 4,300 g and room temperature for 2 minutes (Minispin, Eppendorf, Germany) and cells were then washed three times with PBS buffer. Cells were diluted in PBS to OD600 of 2.0 and kept in a fridge until performing the aggregation assay.
P. asymbiotica subsp. australis cells and fucosylated compounds in a concentration ranging from 50 mM to 3.125 mM were gently mixed in a 9:1 (v/v) ratio. The reaction mixtures were left at room temperature for 10 minutes. 5 µl of reaction mixture was then transferred onto a microscope slide and observed under a fluorescence microscope (OLYMPUS IX81 Microscope IX81F-3 with IX2-UCB-2 Controller and X-Cite 120PC Q; Olympus and Excelitas Technologies, Japan, resp. USA). As a negative control, bacterial cells with/without azide 1 as a monomer were used. Three independent measurements were performed.

T1 sequence (C7BLE4 entry or part of it): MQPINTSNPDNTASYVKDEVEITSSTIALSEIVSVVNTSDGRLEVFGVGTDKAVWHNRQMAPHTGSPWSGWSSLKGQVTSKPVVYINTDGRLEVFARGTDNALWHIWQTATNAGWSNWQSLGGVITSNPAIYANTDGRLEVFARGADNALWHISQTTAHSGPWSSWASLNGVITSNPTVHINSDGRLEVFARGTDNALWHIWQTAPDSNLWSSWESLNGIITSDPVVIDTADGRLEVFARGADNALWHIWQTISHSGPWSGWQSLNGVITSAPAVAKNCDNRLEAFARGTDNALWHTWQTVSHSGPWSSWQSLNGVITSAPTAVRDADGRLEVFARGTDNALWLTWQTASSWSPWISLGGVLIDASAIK

For orientation: IC50 means the concentration at which inhibition is half-maximal. As a reminder, the Kd is the free concentration of one partner at which half of the binding sites on the other are occupied at equilibrium, for simple one-to-one binding. A lower Kd goes with higher affinity. As for `CO[C@@H]1O[C@@H](C)[C@@H](O)[C@@H](O)[C@@H]1O` [α-Me-Fuc, methyl α-L-fucopyranoside, reference compound], on PHL [1], the “MIC (minimal inhibitory concentration, hemagglutination by PHL)” value stood at 400 µM (≈ 71.3 µg/mL); the PotencyL-Fuc came out at 7.8; the “β L-Fuc (affinity improvement factor)” value is reported as 7.8. Further, on PHL [2], the half-maximal inhibitory concentration (IC50) was 38.5 ± 1.2 µM, the “β L-Fuc (affinity improvement factor)” value is listed as 9 and the PotencyL-Fuc came to 9. For the same compound, on PHL [3] (ITC at 25 °C), the affinity, expressed as Kd, was 267 ± 11 µM; the “−TΔS” value was 9.23 ± 1.03 kcal/mol; the “−ΔG” value was 4.88 ± 0.22 kcal/mol; the “−ΔH” value was 14.1 ± 1 kcal/mol. Moreover, the “n (stoichiometry)” value on PHL [3] (ITC at 25 °C, two independent measurements) came out at 2.9 ± 0.2. In addition, the “Potency L-Fuc” value on PHL [3] (ITC, KD L-fucose / KD ligand) was found to be 5. The “β L-Fuc (affinity improvement factor)” value on PHL [3] (ITC, KD,basic unit/(valency × KD,ligand), basic unit L-Fuc) is 5. For the same compound, at PHL [4], the half-maximal inhibitory concentration (IC50) was 40 µM and the “fold stronger ligand than free L-fucose” value is ~10 fold.

As for `C[C@@H]1O[C@@H](CCn2cc(COc3c4cccc3Cc3cccc(c3OCc3cn(CC[C@@H]5O[C@@H](C)[C@@H](O)[C@@H](O)[C@@H]5O)nn3)Cc3cccc(c3OCc3cn(CC[C@@H]5O[C@@H](C)[C@@H](O)[C@@H](O)[C@@H]5O)nn3)Cc3cccc(c3OCc3cn(CC[C@@H]5O[C@@H](C)[C@@H](O)[C@@H](O)[C@@H]5O)nn3)C4)nn2)[C@@H](O)[C@H](O)[C@@H]1O` [Calixarene 7], on PHL [1], the “MIC (minimal inhibitory concentration, hemagglutination by PHL)” value is 100 µM (≈ 145 µg/mL); the PotencyL-Fuc was 31.3; the “β L-Fuc (affinity improvement factor)” value worked out at 7.8; the “β Azide1 (affinity improvement factor)” value was 0.5. The compound further came in with a PotencyAzide1 at PHL [1] of 2. At PHL [2], the IC50 was 0.178 ± 0.02 µM, the “β L-Fuc (affinity improvement factor)” value is 508, the PotencyL-Fuc is reported as 2,029 and the PotencyAzide1 is listed as 61. Besides, the “β Azide1 (affinity improvement factor)” value on PHL [2] (basic unit azide 1) was “approximately 15”. In test [5], the “The lowest concentration able to aggregate P. asymbiotica cells” value was 5 mM.

With `C[C@@H]1O[C@@H](CCn2cc(COc3c4cc(C(C)(C)C)cc3Cc3cc(C(C)(C)C)cc(c3OCc3cn(CC[C@@H]5O[C@@H](C)[C@@H](O)[C@@H](O)[C@@H]5O)nn3)Cc3cc(C(C)(C)C)cc(c3OCc3cn(CC[C@@H]5O[C@@H](C)[C@@H](O)[C@@H](O)[C@@H]5O)nn3)Cc3cc(C(C)(C)C)cc(c3OCc3cn(CC[C@@H]5O[C@@H](C)[C@@H](O)[C@@H](O)[C@@H]5O)nn3)C4)nn2)[C@@H](O)[C@H](O)[C@@H]1O` [Calixarene 6], on PHL [1], the “MIC (minimal inhibitory concentration, hemagglutination by PHL)” value is 100 µM (≈ 167 µg/mL); the PotencyL-Fuc was found to be 31.3; the “β L-Fuc (affinity improvement factor)” value turned out to be 7.8; the “β Azide1 (affinity improvement factor)” value stood at 0.5. On PHL [1], this compound showed a PotencyAzide1 of 2. Further, on PHL [2], the IC50 worked out at 0.195 ± 0.023 µM, the “β L-Fuc (affinity improvement factor)” value was found to be 464, the PotencyL-Fuc is recorded as 1,853 and the PotencyAzide1 is given as 59. Moreover, the “β Azide1 (affinity improvement factor)” value at PHL [2] (basic unit azide 1) amounted to 15. Moreover, the “β Azide1 (affinity improvement factor)” value at PHL [2] (basic unit azide 1, listed as calixarene 6) is on record as “approximately 15”. Besides, the “The lowest concentration able to aggregate P. asymbiotica cells” value in test [5] is 1.25 mM.
